Measurements from ChEMBL document CHEMBL5696442, “Discovery of type II inhibitors of TGFβ-activated kinase 1 (TAK1) and mitogen-activated protein kinase kinase kinase kinase 2 (MAP4K2)” (J Med Chem, 2015).
Active and inactive are the calls of the source. The rule behind the calls is not given here.

Assays:
[1] = target: Serine/threonine-protein kinase Nek4 (Homo sapiens) (UniProt P51957); assay: Inhibition of NEK4 Lys2 labeling site in human A-375 cells at 5 uM by KiNativ Profiling analysis relative to control; assay type: cell-based
[2] = target: Serine/threonine-protein kinase PAK 3 (Homo sapiens) (UniProt O75914); assay: Inhibition of PAK3 (unknown origin) at 1 uM by Ambit Kinomescan binding assay relative to control; values are per cent of control
[3] = target: Ephrin type-B receptor 1 (Homo sapiens) (UniProt P54762); assay: Inhibition of EPHB1 (unknown origin) at 1 uM by Ambit Kinomescan binding assay relative to control; values are per cent of control
[4] = target: Phosphatidylinositol 4-kinase beta (Homo sapiens) (UniProt Q9UBF8); assay: Inhibition of PI4KB ATP labeling site harbouring VPHTQAVVLNSKDKAPYLIYVEVLECENFDTTSVPAR in human A-375 cells at 5 uM by KiNativ Profiling analysis relative to control; assay type: cell-based
Chain of Phosphatidylinositol 4-kinase beta (Homo sapiens) (Q9UBF8 2-816 limits assumed): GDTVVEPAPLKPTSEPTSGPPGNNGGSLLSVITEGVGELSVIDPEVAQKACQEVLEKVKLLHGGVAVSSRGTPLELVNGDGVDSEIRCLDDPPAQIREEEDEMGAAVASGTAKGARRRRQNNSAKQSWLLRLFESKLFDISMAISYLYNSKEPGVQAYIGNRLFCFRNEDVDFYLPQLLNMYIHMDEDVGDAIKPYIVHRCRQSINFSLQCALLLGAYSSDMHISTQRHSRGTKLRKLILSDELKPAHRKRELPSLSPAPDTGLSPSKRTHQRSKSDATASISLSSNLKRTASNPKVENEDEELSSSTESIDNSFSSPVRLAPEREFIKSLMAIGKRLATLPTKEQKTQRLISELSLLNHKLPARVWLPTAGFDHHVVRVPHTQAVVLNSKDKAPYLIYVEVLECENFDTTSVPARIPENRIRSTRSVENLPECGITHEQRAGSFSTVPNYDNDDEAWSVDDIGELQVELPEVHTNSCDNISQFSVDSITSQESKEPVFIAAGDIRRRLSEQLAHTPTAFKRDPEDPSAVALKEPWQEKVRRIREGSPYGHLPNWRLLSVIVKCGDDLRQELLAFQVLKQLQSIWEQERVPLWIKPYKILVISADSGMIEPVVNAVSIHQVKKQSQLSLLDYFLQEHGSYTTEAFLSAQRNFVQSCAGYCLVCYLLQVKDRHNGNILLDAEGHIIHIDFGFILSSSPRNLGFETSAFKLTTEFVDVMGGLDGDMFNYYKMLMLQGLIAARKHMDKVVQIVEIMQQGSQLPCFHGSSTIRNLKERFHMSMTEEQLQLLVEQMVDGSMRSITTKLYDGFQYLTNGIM

[5] = system: Epidermal growth factor receptor (Homo sapiens), P00533 [L858R,T790M]; assay: Inhibition of EGFR L858R/T790M mutant (unknown origin) at 1 uM by Ambit Kinomescan binding assay relative to control
[6] = target: Serine/threonine-protein kinase MARK2 (Homo sapiens) (UniProt Q7KZI7); assay: Inhibition of MARK2 Lys2 labeling site harbouring DLKAENLLLDADMNIK in human A-375 cells at 0.5 uM by KiNativ Profiling analysis relative to control; assay type: cell-based
[7] = target: Ephrin type-A receptor 1 (Homo sapiens) (UniProt P21709); assay: Inhibition of EPHA1 (unknown origin) at 1 uM by Ambit Kinomescan binding assay relative to control; values are per cent of control
[8] = target: Serine/threonine-protein kinase 38 (Homo sapiens) (UniProt Q15208); assay: Inhibition of NDR1 Lys1 labeling site in human A-375 cells at 0.5 uM by KiNativ Profiling analysis relative to control; assay type: cell-based
[9] = system: Proto-oncogene tyrosine-protein kinase receptor Ret (Homo sapiens), P07949 [V804L]; assay: Inhibition of RET V804L mutant (unknown origin) at 10 uM by Ambit Kinomescan binding assay relative to control; values are per cent of control
[10] = target: 1-phosphatidylinositol 3-phosphate 5-kinase (Homo sapiens) (UniProt Q9Y2I7); assay: Inhibition of PIP5K3 ATP labeling site in human Huh-7 cells at 1 uM by KiNativ Profiling analysis relative to control; assay type: cell-based
[11] = target: Mitogen-activated protein kinase 1 (Homo sapiens) (UniProt P28482); assay: Inhibition of ERK2 (unknown origin) at 10 uM by Ambit Kinomescan binding assay
[12] = target: Tyrosine-protein kinase Fer (Homo sapiens, UniProt P16591); assay: Inhibition of FER Lys1 labeling site harbouring DKTSVAVKTCKEDLPQELK in human A-375 cells at 0.05 uM by KiNativ Profiling analysis relative to control; assay type: cell-based
[13] = target: DNA-dependent protein kinase catalytic subunit (Homo sapiens) (UniProt P78527); assay: Inhibition of PRKDC ATP labeling site harbouring KGGSWIQEINVAEKNWYPR in human Huh-7 cells at 1 uM by KiNativ Profiling analysis relative to control; assay type: cell-based
Chain of DNA-dependent protein kinase catalytic subunit (Homo sapiens) (P78527 whole entry): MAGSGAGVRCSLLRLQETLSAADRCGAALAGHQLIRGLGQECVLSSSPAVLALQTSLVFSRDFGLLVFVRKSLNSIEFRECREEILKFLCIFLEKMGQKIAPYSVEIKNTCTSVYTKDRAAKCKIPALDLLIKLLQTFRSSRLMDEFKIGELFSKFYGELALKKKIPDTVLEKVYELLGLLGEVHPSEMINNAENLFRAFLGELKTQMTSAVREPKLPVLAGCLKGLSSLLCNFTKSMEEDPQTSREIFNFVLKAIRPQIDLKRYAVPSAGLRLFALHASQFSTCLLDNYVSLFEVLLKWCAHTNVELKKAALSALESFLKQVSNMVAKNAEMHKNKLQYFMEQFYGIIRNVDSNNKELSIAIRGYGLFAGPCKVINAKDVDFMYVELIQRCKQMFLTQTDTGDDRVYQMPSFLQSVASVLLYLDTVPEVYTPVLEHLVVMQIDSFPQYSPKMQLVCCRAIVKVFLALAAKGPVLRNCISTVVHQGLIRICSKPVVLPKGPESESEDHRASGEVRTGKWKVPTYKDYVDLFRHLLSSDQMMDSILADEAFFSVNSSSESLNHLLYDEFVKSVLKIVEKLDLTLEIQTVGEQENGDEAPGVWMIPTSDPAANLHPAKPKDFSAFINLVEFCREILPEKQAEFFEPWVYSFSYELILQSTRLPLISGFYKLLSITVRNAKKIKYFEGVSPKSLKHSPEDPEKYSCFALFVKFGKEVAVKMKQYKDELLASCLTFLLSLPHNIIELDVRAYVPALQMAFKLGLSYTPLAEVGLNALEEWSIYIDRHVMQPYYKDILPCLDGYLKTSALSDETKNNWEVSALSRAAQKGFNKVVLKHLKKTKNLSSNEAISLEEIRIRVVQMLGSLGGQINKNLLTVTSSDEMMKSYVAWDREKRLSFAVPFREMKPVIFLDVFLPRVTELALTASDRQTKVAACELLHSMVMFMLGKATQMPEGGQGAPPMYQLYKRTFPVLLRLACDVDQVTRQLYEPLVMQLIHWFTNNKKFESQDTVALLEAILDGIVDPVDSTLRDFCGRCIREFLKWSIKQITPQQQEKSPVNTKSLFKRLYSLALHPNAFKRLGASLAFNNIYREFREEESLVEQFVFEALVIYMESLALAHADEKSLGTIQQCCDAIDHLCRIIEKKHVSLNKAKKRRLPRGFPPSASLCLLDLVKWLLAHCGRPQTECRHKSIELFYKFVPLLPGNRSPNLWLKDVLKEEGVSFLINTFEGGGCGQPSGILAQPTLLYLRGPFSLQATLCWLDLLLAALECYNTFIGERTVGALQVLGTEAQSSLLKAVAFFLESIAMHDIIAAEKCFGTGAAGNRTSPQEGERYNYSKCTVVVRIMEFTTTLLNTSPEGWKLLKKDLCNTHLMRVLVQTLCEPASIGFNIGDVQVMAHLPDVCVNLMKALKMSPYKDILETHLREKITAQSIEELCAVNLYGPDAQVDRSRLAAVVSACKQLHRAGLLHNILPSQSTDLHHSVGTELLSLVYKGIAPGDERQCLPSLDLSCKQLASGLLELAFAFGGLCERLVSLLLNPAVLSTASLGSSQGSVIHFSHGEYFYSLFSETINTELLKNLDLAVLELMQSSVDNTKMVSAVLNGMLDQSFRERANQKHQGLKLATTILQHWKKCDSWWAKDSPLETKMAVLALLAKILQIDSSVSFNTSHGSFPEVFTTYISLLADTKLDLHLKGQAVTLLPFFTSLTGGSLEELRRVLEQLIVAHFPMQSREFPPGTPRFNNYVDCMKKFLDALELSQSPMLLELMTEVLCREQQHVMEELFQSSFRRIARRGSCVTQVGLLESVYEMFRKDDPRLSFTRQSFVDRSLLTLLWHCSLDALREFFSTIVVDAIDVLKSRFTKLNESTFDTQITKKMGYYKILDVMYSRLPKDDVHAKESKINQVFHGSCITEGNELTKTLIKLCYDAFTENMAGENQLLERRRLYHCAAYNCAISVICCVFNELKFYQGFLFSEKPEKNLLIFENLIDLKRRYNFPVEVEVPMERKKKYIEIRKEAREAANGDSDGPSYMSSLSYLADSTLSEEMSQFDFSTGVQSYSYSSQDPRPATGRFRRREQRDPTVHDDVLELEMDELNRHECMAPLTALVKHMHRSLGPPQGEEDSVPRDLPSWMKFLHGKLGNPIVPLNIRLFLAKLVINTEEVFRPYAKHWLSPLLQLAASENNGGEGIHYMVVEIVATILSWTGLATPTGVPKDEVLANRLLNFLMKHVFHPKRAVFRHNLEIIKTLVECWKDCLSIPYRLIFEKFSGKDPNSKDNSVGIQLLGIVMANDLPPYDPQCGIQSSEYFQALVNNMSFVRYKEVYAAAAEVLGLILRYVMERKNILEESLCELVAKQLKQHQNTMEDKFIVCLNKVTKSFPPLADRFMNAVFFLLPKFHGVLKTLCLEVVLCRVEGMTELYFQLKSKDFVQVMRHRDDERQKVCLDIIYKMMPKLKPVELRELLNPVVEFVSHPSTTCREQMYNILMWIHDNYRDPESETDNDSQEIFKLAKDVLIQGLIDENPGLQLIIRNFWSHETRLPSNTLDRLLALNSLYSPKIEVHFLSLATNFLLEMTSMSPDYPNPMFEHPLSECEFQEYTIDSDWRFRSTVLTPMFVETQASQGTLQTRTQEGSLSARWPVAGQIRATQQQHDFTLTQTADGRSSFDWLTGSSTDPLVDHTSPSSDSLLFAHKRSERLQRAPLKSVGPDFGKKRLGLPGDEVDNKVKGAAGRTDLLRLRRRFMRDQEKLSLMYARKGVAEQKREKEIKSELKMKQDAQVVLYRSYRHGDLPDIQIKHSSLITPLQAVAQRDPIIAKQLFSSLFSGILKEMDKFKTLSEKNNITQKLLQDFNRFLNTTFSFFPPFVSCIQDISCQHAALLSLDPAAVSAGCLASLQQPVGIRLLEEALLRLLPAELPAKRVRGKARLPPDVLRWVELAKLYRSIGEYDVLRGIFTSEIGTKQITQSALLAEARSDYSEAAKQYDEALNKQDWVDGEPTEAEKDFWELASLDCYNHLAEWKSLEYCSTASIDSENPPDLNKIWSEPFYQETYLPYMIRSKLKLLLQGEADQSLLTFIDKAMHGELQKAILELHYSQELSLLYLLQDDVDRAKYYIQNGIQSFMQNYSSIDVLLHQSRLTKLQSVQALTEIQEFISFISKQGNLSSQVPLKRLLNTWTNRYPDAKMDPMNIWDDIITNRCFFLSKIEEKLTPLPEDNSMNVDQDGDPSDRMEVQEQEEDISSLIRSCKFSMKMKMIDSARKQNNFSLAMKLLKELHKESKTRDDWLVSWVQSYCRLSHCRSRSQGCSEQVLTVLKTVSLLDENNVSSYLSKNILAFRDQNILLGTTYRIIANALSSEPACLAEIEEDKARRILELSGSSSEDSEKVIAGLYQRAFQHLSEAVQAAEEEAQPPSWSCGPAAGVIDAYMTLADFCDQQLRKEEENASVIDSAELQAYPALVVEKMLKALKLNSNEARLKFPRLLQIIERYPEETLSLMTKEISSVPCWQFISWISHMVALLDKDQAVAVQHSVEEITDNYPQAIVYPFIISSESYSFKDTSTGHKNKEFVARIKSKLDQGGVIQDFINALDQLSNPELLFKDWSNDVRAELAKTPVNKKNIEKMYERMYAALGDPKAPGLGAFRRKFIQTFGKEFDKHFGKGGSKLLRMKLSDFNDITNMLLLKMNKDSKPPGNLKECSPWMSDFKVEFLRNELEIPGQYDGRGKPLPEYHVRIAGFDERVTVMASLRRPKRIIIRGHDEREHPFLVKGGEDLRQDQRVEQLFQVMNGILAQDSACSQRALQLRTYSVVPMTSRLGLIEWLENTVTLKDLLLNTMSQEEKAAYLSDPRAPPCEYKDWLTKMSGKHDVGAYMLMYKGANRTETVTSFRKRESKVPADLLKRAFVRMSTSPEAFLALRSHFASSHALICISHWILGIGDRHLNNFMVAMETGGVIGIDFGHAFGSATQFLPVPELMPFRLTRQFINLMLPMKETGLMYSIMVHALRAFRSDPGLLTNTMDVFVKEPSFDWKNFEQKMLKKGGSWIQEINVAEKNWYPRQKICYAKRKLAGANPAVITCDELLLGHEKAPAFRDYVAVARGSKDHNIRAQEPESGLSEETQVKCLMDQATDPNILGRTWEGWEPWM

[14] = target: T1, Phosphatidylinositol 5-phosphate 4-kinase type-2 beta (Homo sapiens) (UniProt P78356); assay: Inhibition of PIP4K2B ATP labeling site harbouring TVKHGAGAEISTVNPEQYSK in human Huh-7 cell lysate at 1 uM by KiNativ Profiling analysis relative to control; assay type: subcellular
T1 sequence (whole entry): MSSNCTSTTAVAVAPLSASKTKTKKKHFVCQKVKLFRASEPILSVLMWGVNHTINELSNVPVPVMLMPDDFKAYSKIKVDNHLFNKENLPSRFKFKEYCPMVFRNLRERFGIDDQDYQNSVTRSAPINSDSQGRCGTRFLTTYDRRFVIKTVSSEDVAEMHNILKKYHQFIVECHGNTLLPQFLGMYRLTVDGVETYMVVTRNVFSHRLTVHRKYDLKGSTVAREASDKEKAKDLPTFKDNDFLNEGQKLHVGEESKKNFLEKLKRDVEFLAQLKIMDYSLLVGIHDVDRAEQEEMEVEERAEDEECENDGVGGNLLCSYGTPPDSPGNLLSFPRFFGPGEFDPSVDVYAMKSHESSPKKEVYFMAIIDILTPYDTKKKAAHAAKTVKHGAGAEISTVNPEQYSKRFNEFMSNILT

[15] = target: T2, Inhibitor of nuclear factor kappa-B kinase subunit epsilon (Homo sapiens) (UniProt Q14164); assay: Inhibition of IKKe Lys2 labeling site in human Huh-7 cell lysate at 1 uM by KiNativ Profiling analysis relative to control; assay type: subcellular
T2 sequence (whole entry): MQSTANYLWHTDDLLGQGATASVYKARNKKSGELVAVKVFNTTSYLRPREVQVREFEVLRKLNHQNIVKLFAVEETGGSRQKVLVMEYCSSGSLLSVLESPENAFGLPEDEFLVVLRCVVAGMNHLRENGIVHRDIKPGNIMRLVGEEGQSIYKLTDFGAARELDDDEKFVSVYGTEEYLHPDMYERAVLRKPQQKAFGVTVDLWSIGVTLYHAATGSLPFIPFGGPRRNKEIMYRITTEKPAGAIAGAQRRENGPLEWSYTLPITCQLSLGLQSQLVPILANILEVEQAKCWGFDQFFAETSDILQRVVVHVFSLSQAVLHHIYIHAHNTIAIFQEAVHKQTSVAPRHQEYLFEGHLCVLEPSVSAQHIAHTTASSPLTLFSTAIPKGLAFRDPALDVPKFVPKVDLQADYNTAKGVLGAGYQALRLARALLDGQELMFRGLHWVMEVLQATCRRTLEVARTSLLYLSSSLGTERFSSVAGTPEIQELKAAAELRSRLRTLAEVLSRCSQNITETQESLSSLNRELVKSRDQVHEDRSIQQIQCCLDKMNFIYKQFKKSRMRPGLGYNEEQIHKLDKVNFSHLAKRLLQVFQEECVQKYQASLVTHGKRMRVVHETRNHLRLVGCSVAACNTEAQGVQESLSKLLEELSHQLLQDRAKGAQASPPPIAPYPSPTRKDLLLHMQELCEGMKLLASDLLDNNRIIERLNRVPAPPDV

[16] = target: Ribosomal protein S6 kinase alpha-5 (Homo sapiens) (UniProt O75582); assay: Inhibition of MSK1 domain1 ATP labeling site in human Huh-7 cell lysate at 1 uM by KiNativ Profiling analysis relative to control; assay type: subcellular

SMILES: CCN1CCN(Cc2ccc(NC(=O)c3ccc(C)c(/C=C/c4cnc5[nH]ccc5c4OC)c3)cc2C(F)(F)F)CC1
- inhibition [1]: 50.4%
- residual activity [2]: 66%
- residual activity [3]: 11%
- inhibition [4]: 14.1%
- inhibition [5]: 100%
- inhibition [6]: 9.1%
- residual activity [7]: 16%
- inhibition [8]: -0.8%

SMILES: CCN1CCN(Cc2ccc(NC(=O)c3ccc(C)c(Oc4ccnc5[nH]ccc45)c3)cc2C(F)(F)F)CC1
- residual activity [9]: 0.8%
- inhibition [10]: -3.1%
- inhibition [11]: inactive
- inhibition [12]: 62.8%
- inhibition [13]: 30.8%

SMILES: CNc1cc(Oc2cc(C(=O)Nc3cc(N4CCN(C)CC4)cc(C(F)(F)F)c3)ccc2C)ncn1
- inhibition [14]: -5.4%
- inhibition [15]: -5.8%
- inhibition [16]: -8%
